The source of these data is PubChem BioAssay (NCI).

The structures appear in SMILES notation. Values joined by “and” are separate entries in the source; they are usually repeats but may differ in a detail not shown here. Equal values may be shown once.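 Interpolation was linear, between the two tested concentrations surrounding the appropriate level; five concentrations were tested over 48 hours in 96-well plates. GI50 is the concentration that inhibits growth by half. The concentration for full growth arrest is given as TGI.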

Among the test systems are DU-145 prostate; MOLT-4 leukemia; UO-31 renal; EKVX NSCLC; SF-539 CNS; SW-620 colon; A549 NSCLC; HOP-62 NSCLC; SK-MEL-5 melanoma; CCRF-CEM leukemia.
What all share (assay): DTP human tumour cell line panel, 48 h

For `CCCNC(=O)c1ccc(Cl)cc1Cl`, the GI50 with DU-145 prostate, in the assay on MOLT-4 leukemia, with UO-31 renal, in the assay with EKVX NSCLC, with SF-539 CNS and in the assay with SW-620 colon was greater than 100 µM each time. Also, the GI50 with A549 NSCLC, in the assay on HOP-62 NSCLC and with SK-MEL-5 melanoma was greater than 100 µM throughout. For the same compound, the TGI in the assay on DU-145 prostate, with MOLT-4 leukemia, in the assay on UO-31 renal, in the assay on EKVX NSCLC, in the assay with SF-539 CNS and in the assay on SW-620 colon was greater than 100 µM each time. In addition, the TGI in the assay on A549 NSCLC, in the assay with HOP-62 NSCLC and in the assay with SK-MEL-5 melanoma was greater than 100 µM each time.
Turning to `Cc1cc(C(=O)NC(CCC(=O)O)C(=O)O)sc1CCC1CNc2nc(N)[nH]c(=O)c2C1` (stereo unspecified), the GI50 was < 0.0158 µM and 0.0407 µM in the assay with DU-145 prostate; 0.0297 µM and 0.0453 µM with MOLT-4 leukemia; 0.0319 µM and 0.0592 µM in the assay on UO-31 renal; 0.0383 µM and 0.0521 µM with SF-539 CNS; < 0.0174 µM and 0.0255 µM in the assay on SW-620 colon; 0.0437 µM and 0.156 µM in the assay with A549 NSCLC. Besides, the GI50 in the assay with HOP-62 NSCLC is 0.0533 µM and 0.0806 µM; in the assay with SK-MEL-5 melanoma, 0.056 µM and 0.279 µM; in the assay with CCRF-CEM leukemia, 0.0123 µM and 0.0273 µM. Moreover, the TGI with DU-145 prostate, in the assay with MOLT-4 leukemia, with UO-31 renal, with SF-539 CNS, in the assay on SW-620 colon and in the assay on A549 NSCLC was greater than 100 µM throughout. Besides, the TGI with HOP-62 NSCLC, with SK-MEL-5 melanoma and in the assay with CCRF-CEM leukemia was greater than 100 µM in each case.
In the case of `C/C=C/[C@H]1O[C@@H]2C(=C[C@H]1O)C(=O)O[C@H]2C`, the GI50 with DU-145 prostate was 5.76 µM; with MOLT-4 leukemia, 2.77 µM; in the assay on UO-31 renal it was 7.51 µM; in the assay on EKVX NSCLC, 13.4 µM; with SW-620 colon, 3.19 µM; in the assay on A549 NSCLC, 19 µM. In addition, the values for the GI50 in the assay with HOP-62 NSCLC and in the assay with SK-MEL-5 melanoma were 23.4 µM and 9.89 µM, respectively. The TGI in the assay with DU-145 prostate was 21.4 µM; with MOLT-4 leukemia it was 10.5 µM; in the assay on UO-31 renal, greater than 54.4 µM; with EKVX NSCLC it was 30.8 µM; with SF-539 CNS it was 3.38 µM; with SW-620 colon, 14.2 µM. Besides, the TGI is 42.3 µM with A549 NSCLC, 48.4 µM in the assay on HOP-62 NSCLC and 23.3 µM with SK-MEL-5 melanoma.
As to `C=C(CC(=O)O)C(=O)O` (tested in a mixture with another compound), the GI50 was greater than 50 µg/mL in the assay on DU-145 prostate; greater than 50 µg/mL in the assay on MOLT-4 leukemia; greater than 50 µg/mL in the assay on UO-31 renal; 40.6 µg/mL with EKVX NSCLC; greater than 50 µg/mL with SF-539 CNS; greater than 50 µg/mL with SW-620 colon. For the same compound, the GI50 with A549 NSCLC, with HOP-62 NSCLC and in the assay on SK-MEL-5 melanoma was greater than 50 µg/mL each time. For the same compound, the TGI in the assay on DU-145 prostate, in the assay on MOLT-4 leukemia, in the assay with UO-31 renal, with EKVX NSCLC, with SF-539 CNS and in the assay on SW-620 colon was greater than 50 µg/mL each time. The TGI in the assay on A549 NSCLC, with HOP-62 NSCLC and in the assay with SK-MEL-5 melanoma was greater than 50 µg/mL each time.
As for `CCN(CC)CCN(Cc1ccc(F)cc1)c1ccc(CO)c(Cl)c1`, the GI50 in the assay on DU-145 prostate is 9.97 µM; with MOLT-4 leukemia, 40.1 µM; in the assay on UO-31 renal it was 19.5 µM; in the assay with SF-539 CNS it was 48.1 µM; in the assay with SW-620 colon, 31.5 µM; in the assay on A549 NSCLC, 2.42 µM. For the same compound, the GI50 with HOP-62 NSCLC is 9.84 µM; in the assay with SK-MEL-5 melanoma, 16.3 µM; in the assay on CCRF-CEM leukemia, 61.7 µM. In addition, the TGI in the assay on DU-145 prostate is greater than 73.8 µM; with MOLT-4 leukemia it was greater than 100 µM; in the assay with UO-31 renal, 95.1 µM; in the assay on SF-539 CNS, greater than 100 µM; with SW-620 colon, greater than 100 µM; in the assay on A549 NSCLC, 12.8 µM. The values for the TGI in the assay with HOP-62 NSCLC, with SK-MEL-5 melanoma and with CCRF-CEM leukemia were 63.3 µM, 30.1 µM and greater than 100 µM, respectively.
As for `COc1ccc2c(Cl)cc(NC(=O)Nc3c(C)cccc3C)nc2c1`, the GI50 with DU-145 prostate is 28.4 µM; in the assay with MOLT-4 leukemia it was 45.9 µM; with UO-31 renal, 3 µM; in the assay with SF-539 CNS, 19.8 µM; with SW-620 colon it was 38.9 µM; in the assay with A549 NSCLC, 6.1 µM. The GI50 was 3.91 µM in the assay with HOP-62 NSCLC and 18.1 µM with SK-MEL-5 melanoma. Moreover, the TGI with DU-145 prostate is greater than 100 µM; with MOLT-4 leukemia, greater than 100 µM; in the assay with UO-31 renal it was 12.7 µM; in the assay on SF-539 CNS, 46.3 µM; in the assay with SW-620 colon, greater than 100 µM; in the assay with A549 NSCLC, 69.4 µM. Moreover, the TGI with HOP-62 NSCLC is 15.3 µM; with SK-MEL-5 melanoma it was greater than 100 µM.
Take `COc1cccc2c1C(=O)c1c(O)c3c(c(O)c1C2=O)C[C@@](O)(C(=O)CO)CC3OC1CC(O)C(O)C(C)O1` (stereo partly specified): the TGI is 0.176 µM with DU-145 prostate; 2.41 µM in the assay on UO-31 renal; 7.49 µM in the assay with EKVX NSCLC; 0.795 µM with SF-539 CNS; 17.3 µM with SW-620 colon; 3.99 µM with A549 NSCLC. Besides, the figures for the TGI in the assay on HOP-62 NSCLC, in the assay with SK-MEL-5 melanoma and in the assay with CCRF-CEM leukemia were 0.217 µM, 0.687 µM and greater than 35.4 µM, respectively.
Consider `O=[N+]([O-])c1ccc(/C=C/c2csnn2)cc1`, for which the TGI with MOLT-4 leukemia, in the assay on UO-31 renal, with EKVX NSCLC, with SF-539 CNS, in the assay with SW-620 colon and with A549 NSCLC was greater than 100 µM each time. Also, the TGI in the assay with HOP-62 NSCLC, in the assay with SK-MEL-5 melanoma and with CCRF-CEM leukemia was greater than 100 µM throughout.
Consider `COC(=O)N/N=C(/CCC(=O)Nc1ccc(C)c(C)c1)CC(=O)C(C)(C)C`, for which the TGI with MOLT-4 leukemia, in the assay on UO-31 renal, with EKVX NSCLC, in the assay with SF-539 CNS, in the assay with SW-620 colon and with A549 NSCLC was greater than 100 µM in each case. The TGI in the assay on HOP-62 NSCLC, with SK-MEL-5 melanoma and in the assay with CCRF-CEM leukemia was greater than 100 µM throughout.
Take `O=[N+]([O-])c1ccccc1C=NC12CC3CC(CC(C3)C1)C2`: the TGI in the assay with MOLT-4 leukemia, with UO-31 renal, with EKVX NSCLC, in the assay with SF-539 CNS, in the assay with SW-620 colon and in the assay with A549 NSCLC was greater than 100 µM in each case. The TGI in the assay on HOP-62 NSCLC, in the assay with SK-MEL-5 melanoma and in the assay with CCRF-CEM leukemia was greater than 100 µM each time.
